Here are results for 20 compounds from patent US20190152992A1, “BENZODIOXANE DERIVATIVES AND THEIR PHARMACEUTICAL USE” (Orion Corporation, priority 2016, published 2019).

pIC50: −log10 of the molar value. Structures can show the parent of a compound that is named as a salt. Some results are limits rather than exact numbers.

In one experiment the target is T1, human alpha2A receptors (Homo sapiens, UniProt P08913).
T1 sequence (P08913 1-465): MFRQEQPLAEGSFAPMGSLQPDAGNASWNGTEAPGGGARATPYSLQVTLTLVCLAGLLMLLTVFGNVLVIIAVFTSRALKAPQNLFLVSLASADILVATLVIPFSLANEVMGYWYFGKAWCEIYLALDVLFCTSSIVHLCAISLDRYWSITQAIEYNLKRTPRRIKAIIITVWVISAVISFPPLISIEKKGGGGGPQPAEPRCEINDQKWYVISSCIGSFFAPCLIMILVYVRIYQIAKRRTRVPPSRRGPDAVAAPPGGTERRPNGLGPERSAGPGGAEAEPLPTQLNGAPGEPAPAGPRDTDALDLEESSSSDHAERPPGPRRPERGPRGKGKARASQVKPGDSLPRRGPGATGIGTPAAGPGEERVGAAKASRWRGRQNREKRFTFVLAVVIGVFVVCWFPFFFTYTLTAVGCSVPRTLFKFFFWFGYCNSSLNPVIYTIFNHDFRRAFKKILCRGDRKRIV
Briefly: cell-based.

For the next experiment, the target named is T2, human alpha2C receptors (Homo sapiens, UniProt P18825).
T2 sequence (P18825 1-462): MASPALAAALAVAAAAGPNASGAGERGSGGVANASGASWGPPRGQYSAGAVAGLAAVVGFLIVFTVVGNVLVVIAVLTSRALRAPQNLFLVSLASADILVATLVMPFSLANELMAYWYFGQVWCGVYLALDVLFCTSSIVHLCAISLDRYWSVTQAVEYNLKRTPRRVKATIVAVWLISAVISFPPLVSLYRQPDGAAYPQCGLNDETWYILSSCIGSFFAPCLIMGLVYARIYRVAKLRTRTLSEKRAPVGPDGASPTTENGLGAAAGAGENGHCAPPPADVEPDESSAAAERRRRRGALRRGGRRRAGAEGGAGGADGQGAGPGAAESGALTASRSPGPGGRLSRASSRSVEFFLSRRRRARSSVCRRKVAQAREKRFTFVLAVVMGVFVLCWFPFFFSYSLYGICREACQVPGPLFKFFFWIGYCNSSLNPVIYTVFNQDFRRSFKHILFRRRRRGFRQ
The experiment can be described thus: Determination of alpha2C antagonistic activity in vitro (FLIPR calcium assay). Conditions: for Kb: Alpha 2C Adrenaline Kb, Kb calculated from IC50 with the Cheng-Prusoff equation, adrenaline as agonist, CHO cells, human alpha2C.

As for `N#Cc1ccc2c(c1)CN([C@H]1CCCN(C[C@H]3COc4ccccc4O3)C1)C2=O` [example 67, 2-((S)-1-(((S)-2,3-Dihydrobenzo[b][1,4]dioxin-2-yl)methyl)piperidin-3-yl)-1-oxoisoindoline-5-carbonitrile], the pIC50 – broadly, the IC50 on a negative log10 scale, so that one unit is a factor of ten – on human alpha2A receptors was below 5.00; at human alpha2C receptors, 8.89. The Kb is above 449 nM on human alpha2A receptors and 0.132 nM at human alpha2C receptors.

Turning to `O=C1CN(C2CC(F)(F)C2)C(=O)N1[C@H]1CCCN(C[C@H]2COc3ccccc3O2)C1` [example 121, 1-(3,3-Difluorocyclobutyl)-3-((S)-1-(((S)-2,3-dihydrobenzo[b][1,4]dioxin-2-yl)methyl)piperidin-3-yl)imidazolidine-2,4-dione], on human alpha2A receptors, the pIC50 is below 5.00 and the Kb is above 449 nM. For the same compound, on human alpha2C receptors, the pIC50 was 7.58 and the Kb is 2.66 nM.

`CC1(c2ccccc2)NC(=O)N([C@H]2CCCN(C[C@H]3COc4ccccc4O3)C2)C1=O` (stereo partly drawn) [example 74, 3-((S)-1-(((S)-2,3-Dihydrobenzo[b][1,4]dioxin-2-yl)methyl)piperidin-3-yl)-5-methyl-5-phenylimidazolidine-2,4-dione]: at human alpha2A receptors, the pIC50 was 7.89 and the Kb came to 1 nM. Further, at human alpha2C receptors, the pIC50 is above 10.00 and the Kb is below 0.01 nM.

Take `CN(C)Cc1nc2ccc(Cl)cc2n1[C@H]1CCCN(C[C@H]2COc3ccccc3O2)C1` [example 152, 1-(6-Chloro-1-((S)-1-(((S)-2,3-dihydrobenzo[b][1,4]dioxin-2-yl)methyl)piperidin-3-yl)-1H-benzo[d]imidazol-2-yl)-N,N-dimethylmethanamine]: the figures for the pIC50 against human alpha2A receptors and at human alpha2C receptors were 6.54 and 7.16, respectively. Besides, the Kb is 13 nM at human alpha2A receptors and 7.03 nM at human alpha2C receptors.

At human alpha2A receptors, `CCc1nc2ccc(F)cc2n1[C@H]1CCCN(C[C@H]2COc3ccccc3O2)C1` [example 84, 1-((S)-1-(((S)-2,3-Dihydrobenzo[b][1,4]dioxin-2-yl)methyl)piperidin-3-yl)-2-ethyl-6-fluoro-1H-benzo[d]imidazole] gave a pIC50 of 5.36 and a Kb of 195 nM. Further, on human alpha2C receptors, the pIC50 was above 10.00 and the Kb was below 0.01 nM.

At human alpha2A receptors, `O=C1c2ncncc2CN1[C@H]1CCCN(C[C@H]2COc3ccccc3O2)C1` [example 78, 6-((S)-1-(((S)-2,3-Dihydrobenzo[b][1,4]dioxin-2-yl)methyl)piperidin-3-yl)-5H-pyrrolo[3,4-d]pyrimidin-7(6H)-one] gave a pIC50 below 5.00 and a Kb above 449 nM. For the same compound, on human alpha2C receptors, the pIC50 is 6.59 and the Kb was 25.8 nM.

On human alpha2A receptors, `O=C1C=C(c2ccc(F)cc2)CN1[C@H]1CCCN(C[C@H]2COc3ccccc3O2)C1` [example 41, 1-((S)-1-(((S)-2,3-Dihydrobenzo[b][1,4]dioxin-2-yl)methyl)piperidin-3-yl)-4-(4-fluorophenyl)-1H-pyrrol-2(5H)-one] had a pIC50 below 5.00 and a Kb above 449 nM. In addition, at human alpha2C receptors, the pIC50 is 7.93 and the Kb is 1.19 nM.

Regarding `CC(C)N1C(=O)N([C@H]2CCCN(C[C@H]3COc4ccccc4O3)C2)C(=O)C1(C)C` [example 116, 3-((S)-1-(((S)-2,3-Dihydrobenzo[b][1,4]dioxin-2-yl)methyl)-piperidin-3-yl)-1-isopropyl-5,5-dimethylimidazolidine-2,4-dione], the pIC50 against human alpha2A receptors was below 5.00; at human alpha2C receptors it was 9.00. Moreover, the Kb on human alpha2A receptors was above 449 nM; on human alpha2C receptors, 0.1 nM.

At human alpha2A receptors, `Cc1nc2cccnc2n1[C@H]1CCCN(C[C@H]2COc3ccccc3O2)C1` [example 156, 3-((S)-1-(((S)-2,3-Dihydrobenzo[b][1,4]dioxin-2-yl)methyl)-piperidin-3-yl)-2-methyl-3H-imidazo[4,5-b]pyridine] showed a pIC50 of 5.45 and a Kb of 161 nM. Moreover, on human alpha2C receptors, the pIC50 is 10.92 and the Kb was 0.001 nM.

At human alpha2A receptors, `COc1ccc2c(c1)CN([C@H]1CCCN(C[C@H]3COc4ccccc4O3)C1)C2=O` [example 69, 2-((S)-1-(((S)-2,3-Dihydrobenzo[b][1,4]dioxin-2-yl)methyl)piperidin-3-yl)-5-methoxyisoindolin-1-one] gave a pIC50 below 5.00 and a Kb above 449 nM. At human alpha2C receptors, the pIC50 is 9.05 and the Kb is 0.09 nM.

`COc1ccc2nc(C)n([C@H]3CCCN(C[C@H]4COc5ccccc5O4)C3)c2n1` [example 155, 3-((S)-1-(((S)-2,3-Dihydrobenzo[b][1,4]dioxin-2-yl)methyl)piperidin-3-yl)-5-methoxy-2-methyl-3H-imidazo[4,5-b]pyridine]: the pIC50 against human alpha2A receptors is below 5.00; at human alpha2C receptors it was 7.25. Also, the figures for the Kb on human alpha2A receptors and at human alpha2C receptors were above 449 nM and 5.64 nM, respectively.

On human alpha2A receptors, `C[C@H](c1ccccc1)N1C(=O)C(=O)N([C@H]2CCCN(C[C@H]3COc4ccccc4O3)C2)C1=O` [example 128, 1-((S)-1-(((S)-2,3-Dihydrobenzo[b][1,4]dioxin-2-yl)methyl)-piperidin-3-yl)-3-((R)-1-phenylethyl)imidazolidine-2,4,5-trione] showed a pIC50 of 5.05 and a Kb of 399 nM. Also, at human alpha2C receptors, the pIC50 is 8.93 and the Kb was 0.119 nM.

Consider `CC1(C)CC(=O)N([C@H]2CCCN(C[C@H]3COc4ccccc4O3)C2)C1` [example 1, 1-((S)-1-(((S)-2,3-Dihydrobenzo[b][1,4]dioxin-2-yl)methyl)piperidin-3-yl)-4,4-dimethylpyrrolidin-2-one], for which the pIC50 was below 5.00 on human alpha2A receptors and 9.49 at human alpha2C receptors. In addition, the Kb on human alpha2A receptors is above 449 nM; on human alpha2C receptors it was 0.03 nM.

Take `CCN1CCN([C@H]2CCCN(C[C@H]3COc4ccccc4O3)C2)C1=O` [example 16, 1-((S)-1-(((S)-2,3-Dihydrobenzo[b][1,4]dioxin-2-yl)methyl)piperidin-3-yl)-3-ethylimidazolidin-2-one]: on human alpha2A receptors, the pIC50 was below 5.00 and the Kb was above 449 nM. For the same compound, on human alpha2C receptors, the pIC50 is 9.24 and the Kb was 0.06 nM.

As for `CC(=O)NCc1ccc2c(c1)CN([C@H]1CCCN(C[C@H]3COc4ccccc4O3)C1)C2=O` [example 71, N-((2-((S)-1-(((S)-2,3-Dihydrobenzo[b][1,4]dioxin-2-yl)methyl)piperidin-3-yl)-1-oxoisoindolin-5-yl)methyl)acetamide], at human alpha2A receptors, the pIC50 was below 5.00 and the Kb was above 449 nM. For the same compound, on human alpha2C receptors, the pIC50 was 9.92 and the Kb is 0.012 nM.

As for `O=C1c2cnccc2CN1[C@H]1CCCN(C[C@H]2COc3ccccc3O2)C1` [example 11, 2-((S)-1-(((S)-2,3-Dihydrobenzo[b][1,4]dioxin-2-yl)methyl)piperidin-3-yl)-1H-pyrrolo[3,4-c]pyridin-3(2H)-one], on human alpha2A receptors, the pIC50 is below 5.00 and the Kb is above 449 nM. Besides, at human alpha2C receptors, the pIC50 is 6.90 and the Kb was 12.8 nM.

For the compound `CC(C)N1C(=O)N([C@H]2CCCN(C[C@H]3COc4ccccc4O3)C2)C[C@@H]1c1ccccc1` [example 7, (S)-1-((S)-1-(((S)-2,3-Dihydrobenzo[b][1,4]dioxin-2-yl)methyl)piperidin-3-yl)-3-isopropyl-4-phenylimidazolidin-2-one], at human alpha2A receptors, the pIC50 is 5.76 and the Kb worked out at 78 nM. Also, on human alpha2C receptors, the pIC50 was above 10.00 and the Kb was below 0.01 nM.

For `C[C@H]1NC(=O)N([C@H]2CCCN(C[C@H]3COc4ccccc4O3)C2)C1=O` [example 112, (R)-3-((S)-1-(((S)-2,3-Dihydrobenzo[b][1,4]dioxin-2-yl)methyl)-piperidin-3-yl)-5-methylimidazolidine-2,4-dione], the pIC50 was below 5.00 against human alpha2A receptors and 9.80 at human alpha2C receptors. Also, the Kb on human alpha2A receptors was above 449 nM; at human alpha2C receptors, 0.02 nM.

As for `c1ccc2c(c1)OC[C@H](CN1CCC[C@H](n3cnc4cncnc43)C1)O2` [example 161, 9-((S)-1-(((S)-2,3-Dihydrobenzo[b][1,4]dioxin-2-yl)methyl)-piperidin-3-yl)-9H-purine], the pIC50 at human alpha2A receptors was below 5.00; at human alpha2C receptors, 9.53. Moreover, the results for the Kb at human alpha2A receptors and at human alpha2C receptors were above 449 nM and 0.03 nM, respectively.

In the case of `O=C1c2ccc(F)cc2CN1[C@H]1CCCN(C[C@H]2COc3ccccc3O2)C1` [example 58, 2-((S)-1-(((S)-2,3-Dihydrobenzo[b][1,4]dioxin-2-yl)methyl)piperidin-3-yl)-5-fluoroisoindolin-1-one hydrochloride], the pIC50 at human alpha2A receptors is below 5.00; at human alpha2C receptors, 9.52. Further, the figures for the Kb on human alpha2A receptors and at human alpha2C receptors were above 449 nM and 0.03 nM, respectively.
